According to publication PMC9738107, “Targeting of the ELR+CXCL/CXCR1/2 Pathway Is a Relevant Strategy for the Treatment of Paediatric Medulloblastomas” (Cells, 2022):

Legend:
Assay type in all cases: cell-based, human
Daoy cells = experiment: Pseudo-vessel formation on Matrigel
Procedure: (§1) Figure 6 C29 inhibits the formation of pseudo vessel structures. (A) Formation of pseudo-vessels by Daoy cells, ONS-76, and HD-MB03 cultured on Matrigel and treated with Control (DMSO) or C29 (1 or 2.5 µM); n = 3. (B) Number of meshes (geometric units of the net formed by the cells on the matrigel surface) were counted with ImageJ. Statistics were performed using Student t-test for only 2 comparisons or ANOVA test for multiple comparisons. *** p < 0.001, scale = 500 μm. […]
(§2) Pseudo‐vessels formation assays
(§3) The cells were deprived of serum overnight. They were then seeded (75000 Daoy
(§4) with Matrigel Matrix, hESC‐Qualified (VWR). Plates were then incubated at 37 °C, 5%
(§5) CO2 for 24 hours. Representative images were taken with the Evos XL Core Cell Imaging
(§6) System at low magnification (4X). For each image, we determined the number of meshes
(§7) (number of geometric units of the net formed by the cells seeded on the matrigel surface). […]

HD-MB03 cells = experiment: Pseudo-vessel formation on Matrigel; conditions: HD-MB03, 1 µM
Procedure: as §1, §2, §3, §4, §5, §6, §7

ONS-76 cells = experiment: Pseudo-vessel formation on Matrigel
Procedure: as §1, §2, §3, §4, §5, §6, §7

[1] = test system: HD-MB03 spheroids expressing DsRed on mouse cerebellar slices; experiment: Ex vivo cerebellar organotypic model; conditions: 5 µM C29 daily for five days, after fourteen days
Text: (§8) To establish ex vivo cultures of cerebellar tissues, mouse cerebellums were surgically harvested and sectioned into 250 μm thick slices using a vibrating blade microtome (RRID:SCR_016495). To comply with the 3-R rule, we used supernumerary mice (aged 12 weeks) that were destined to be sacrificed. A spheroid formed from DsRed-expressing MB cells was then grafted onto each cerebellum slice. These organotypic co-culture models were placed on inserts and maintained as previously described. After daily exposure to C29 or DMSO for 5 consecutive days, tumour growth and invasion within the cerebellum slices were analysed over time using the JuLI™ Stage imaging system and the PHERAstar® FS multiplate reader (λex 580 nm/λem 620 nm–fluorescence signal acquisition with a 15 × 15 matrix scanning mode). […]
(§9) Figure 7 C29 is effective in ex vivo cerebellar organotypic model. […] (B) Spheroid growth was monitored by measuring DsRed fluorescence (PheraStar) over 14 days (C) Statistics were performed using Student t-test. * p < 0.05, n = 5. […] Daily (14 days) images, 30 in total, of spheroid growth in each well (JULISdays) were taken (D) Spheroid growth was monitored by measuring DsRed fluorescence (PheraStar) for 14 days (E) Scale bar = 250 µM. […]

[2] = test system: ONS-76 spheroids expressing DsRed on mouse cerebellar slices; experiment: Ex vivo cerebellar organotypic model; conditions: 5 µM C29 daily for five days, after fourteen days
Text: as §8, §9

In the case of O=C(Nc1cccc(Cl)c1)Nc1nc2ccc([N+](=O)[O-])cc2s1 [C29, 1-(3-chlorophenyl)-3-(6-nitrobenzo[d]thiazol-2-yl) urea], the Pseudo-vasculature formation (Daoy cells; 1 µM) is reported as “inhibited this ability”, the Pseudo-vasculature formation (Daoy cells; 2.5 µM) is reported as “inhibited this ability” and the “Number of meshes (pseudo-vessels)” value (HD-MB03 cells) is reported as “significantly reduced the number of meshes”. The Pseudo-vasculature formation (ONS-76 cells; ONS-76, 1 µM) was “some vascular structures were retained”, the Pseudo-vasculature formation (ONS-76 cells; ONS-76, 2.5 µM) was “completely lost this ability” and the “Reduction of tumour expansion” value [1] was 34.4 ± 8.8%. The “Reduction of tumour expansion” value [2] was 28.9 ± 4.5%.
